In ChEMBL document CHEMBL5649167, “The SUV4-20 inhibitor A-196 verifies a role for epigenetics in genomic integrity” (Nat Chem Biol, 2017):
Activity calls are given as the source filed them. The calls are words filed in the database; no cut-off is given here.

How the values were obtained:
[1] = molecular target: Kappa-type opioid receptor (Homo sapiens) (UniProt P41145); test: Inhibition of human kappa opioid receptor expressed in stable HEK cells at 10 uM relative to control; format: cell-based
[2] = molecular target: D(3) dopamine receptor (Homo sapiens) (UniProt P35462); test: Inhibition of human D(3) dopamine receptor expressed in HEK293T cells at 10 uM relative to control; format: cell-based
Homo sapiens [3] = organism: Homo sapiens; test: Inhibition of human SKCa channel at 10 uM relative to control
[4] = molecular target: Histamine H3 receptor (Homo sapiens) (UniProt Q9Y5N1); test: Inhibition of human Histamine H3 receptor expressed in human Flp-In-293 cells at 10 uM relative to control; format: cell-based
[5] = molecular target: Galanin receptor type 2 (Homo sapiens) (UniProt O43603); test: Inhibition of human GAL2 at 10 uM relative to control
Embryonic stem cell = test: Antiproliferative activity against mouse Embryonic stem cell assessed as […] in H4K20me3 at 10 uM incubated for 3 days by immunofluorescence analysis; format: functional, cell-based; settings: time 3.0 day
[6] = molecular target: T1, Muscarinic acetylcholine receptor M1 (Homo sapiens) (UniProt P11229); test: Inhibition of human Muscarinic acetylcholine receptor M1 at 10 uM relative to control
T1 sequence (whole entry): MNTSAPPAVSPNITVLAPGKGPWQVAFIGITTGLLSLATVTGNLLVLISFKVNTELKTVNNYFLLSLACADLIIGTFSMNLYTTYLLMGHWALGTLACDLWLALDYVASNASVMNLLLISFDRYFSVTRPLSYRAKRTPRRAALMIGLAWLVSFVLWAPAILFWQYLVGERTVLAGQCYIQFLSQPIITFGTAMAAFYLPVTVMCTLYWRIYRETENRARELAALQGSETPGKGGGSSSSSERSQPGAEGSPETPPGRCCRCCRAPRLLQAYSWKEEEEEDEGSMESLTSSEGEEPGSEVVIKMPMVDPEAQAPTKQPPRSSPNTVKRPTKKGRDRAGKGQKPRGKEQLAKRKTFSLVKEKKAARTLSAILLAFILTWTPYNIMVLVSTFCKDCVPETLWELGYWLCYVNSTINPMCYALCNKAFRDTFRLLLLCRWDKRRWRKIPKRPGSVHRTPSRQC

[7] = molecular target: Adenosine receptor A1 (Homo sapiens) (UniProt P30542); test: Inhibition of human Adenosine receptor A1 at 10 uM relative to control
[8] = molecular target: Neuropeptide Y receptor type 2 (Homo sapiens) (UniProt P49146); test: Inhibition of human NPY-Y2 receptor at 10 uM relative to control
[9] = molecular target: Mu-type opioid receptor (Homo sapiens) (UniProt P35372); test: Inhibition of human Mu-type opioid receptor at 10 uM relative to control
[10] = molecular target: Beta-3 adrenergic receptor (Homo sapiens) (UniProt P13945); test: Inhibition of human Beta-3 adrenergic receptor expressed in human Flp-In-293 cells at 10 uM relative to control; format: cell-based
[11] = molecular target: 5-hydroxytryptamine receptor 1B (Homo sapiens) (UniProt P28222); test: Inhibition of human 5-HT1B expressed in stable HEK cells at 10 uM relative to control; format: cell-based
Rattus norvegicus [12] = organism: Rattus norvegicus; test: Inhibition of Rat GABAA at 10 uM in the presence of PBR relative to control
[13] = molecular target: T2, 5-hydroxytryptamine receptor 1A (Homo sapiens) (UniProt P08908); test: Inhibition of human 5-HT1A at 10 uM relative to control
T2 sequence (whole entry): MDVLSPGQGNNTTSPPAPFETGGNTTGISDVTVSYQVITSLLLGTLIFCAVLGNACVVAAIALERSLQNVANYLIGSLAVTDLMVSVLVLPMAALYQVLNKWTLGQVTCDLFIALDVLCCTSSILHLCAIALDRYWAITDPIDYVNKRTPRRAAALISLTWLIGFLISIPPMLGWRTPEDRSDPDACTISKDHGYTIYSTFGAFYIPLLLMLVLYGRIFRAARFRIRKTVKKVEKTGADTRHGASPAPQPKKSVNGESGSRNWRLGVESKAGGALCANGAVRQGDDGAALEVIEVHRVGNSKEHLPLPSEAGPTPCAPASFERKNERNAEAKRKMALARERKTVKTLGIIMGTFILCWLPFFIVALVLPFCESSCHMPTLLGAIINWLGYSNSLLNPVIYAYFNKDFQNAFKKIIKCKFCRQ

[14] = molecular target: Alpha-2A adrenergic receptor (Homo sapiens) (UniProt P08913); test: Inhibition of human Alpha-2A adrenergic receptor in stable Canis lupus familiaris MDCK cells at 10 uM relative to control; format: cell-based
Rattus norvegicus [15] = organism: Rattus norvegicus; test: Inhibition of Rat Somatostatin at 10 uM relative to control
[16] = molecular target: C-C chemokine receptor type 1 (Homo sapiens) (UniProt P32246); test: Inhibition of human C-C chemokine receptor type 1 at 10 uM relative to control
[17] = molecular target: 5-hydroxytryptamine receptor 2A (Homo sapiens) (UniProt P28223); test: Inhibition of human 5-HT2A receptor expressed in HEK293T cells at 10 uM relative to control; format: cell-based
[18] = molecular target: Muscarinic acetylcholine receptor M3 (Homo sapiens) (UniProt P20309); test: Inhibition of human Muscarinic 3 at 10 uM relative to control
B-cell = test: Induction of DNA repair in mouse B cells assessed as inhibition in H4K20me3 level at 1 to 10 uM incubated for 96 hrs by western blot analysis; format: functional, cell-based; settings: dose 1-10 µM
[19] = molecular target: Alpha-2C adrenergic receptor (Homo sapiens) (UniProt P18825); test: Inhibition of human Alpha-2C adrenergic receptor in stable Canis lupus familiaris MDCK cells at 10 uM relative to control; format: cell-based
[20] = molecular target: Nociceptin receptor (Homo sapiens) (UniProt P41146); test: Inhibition of human Nociceptin receptor at 10 uM relative to control
[21] = molecular target: Histamine H4 receptor (Homo sapiens) (UniProt Q9H3N8); test: Inhibition of human Histamine H4 receptor expressed in HEK293T cells at 10 uM relative to control; format: cell-based
[22] = molecular target: Histamine H1 receptor (Homo sapiens) (UniProt P35367); test: Inhibition of human histamine H1 receptor expressed in stable HEK cells at 10 uM relative to control; format: cell-based
[23] = molecular target: D(1A) dopamine receptor (Homo sapiens) (UniProt P21728); test: Inhibition of human D(1A) dopamine receptor expressed in HEK293T cells at 10 uM relative to control; format: cell-based
[24] = molecular target: 5-hydroxytryptamine receptor 2B (Homo sapiens) (UniProt P41595); test: Inhibition of human 5-HT2B receptor expressed in stable HEK cells at 10 uM relative to control; format: cell-based
Homo sapiens [25] = organism: Homo sapiens; test: Inhibition of human Sodium channel site 2 at 10 uM relative to control
Homo sapiens [26] = organism: Homo sapiens; test: Inhibition of human GABA-gated Cl- channel at 10 uM relative to control
[27] = molecular target: Beta-1 adrenergic receptor (Homo sapiens) (UniProt P08588); test: Inhibition of human Beta-1 adrenoceptor at 10 uM relative to control
[28] = molecular target: Adenosine receptor A3 (Homo sapiens) (UniProt P0DMS8); test: Inhibition of human Adenosine receptor A3 at 10 uM relative to control

Chain of Galanin receptor type 2 (Homo sapiens) (O43603 whole entry): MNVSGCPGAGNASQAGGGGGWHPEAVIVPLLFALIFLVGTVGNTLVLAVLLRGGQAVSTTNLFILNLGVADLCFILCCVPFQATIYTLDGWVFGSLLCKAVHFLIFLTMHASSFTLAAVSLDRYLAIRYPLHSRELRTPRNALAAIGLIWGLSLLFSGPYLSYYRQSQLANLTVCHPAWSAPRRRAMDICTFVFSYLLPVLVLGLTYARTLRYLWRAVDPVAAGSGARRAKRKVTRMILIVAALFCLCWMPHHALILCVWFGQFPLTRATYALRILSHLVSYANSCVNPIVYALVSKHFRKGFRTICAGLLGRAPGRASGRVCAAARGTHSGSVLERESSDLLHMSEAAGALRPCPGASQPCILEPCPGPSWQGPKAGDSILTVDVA
Chain of Neuropeptide Y receptor type 2 (Homo sapiens) (P49146 whole entry): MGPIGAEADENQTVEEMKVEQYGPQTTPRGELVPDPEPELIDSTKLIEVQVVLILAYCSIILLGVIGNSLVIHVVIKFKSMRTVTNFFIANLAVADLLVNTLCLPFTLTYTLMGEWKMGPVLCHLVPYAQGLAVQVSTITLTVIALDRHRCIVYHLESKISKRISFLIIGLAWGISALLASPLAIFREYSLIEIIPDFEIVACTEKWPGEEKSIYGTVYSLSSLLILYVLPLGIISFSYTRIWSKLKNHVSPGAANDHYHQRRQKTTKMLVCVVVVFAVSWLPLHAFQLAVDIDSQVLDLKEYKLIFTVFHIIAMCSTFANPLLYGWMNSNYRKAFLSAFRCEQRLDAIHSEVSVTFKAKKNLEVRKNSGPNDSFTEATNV
Chain of 5-hydroxytryptamine receptor 2A (Homo sapiens) (P28223 whole entry): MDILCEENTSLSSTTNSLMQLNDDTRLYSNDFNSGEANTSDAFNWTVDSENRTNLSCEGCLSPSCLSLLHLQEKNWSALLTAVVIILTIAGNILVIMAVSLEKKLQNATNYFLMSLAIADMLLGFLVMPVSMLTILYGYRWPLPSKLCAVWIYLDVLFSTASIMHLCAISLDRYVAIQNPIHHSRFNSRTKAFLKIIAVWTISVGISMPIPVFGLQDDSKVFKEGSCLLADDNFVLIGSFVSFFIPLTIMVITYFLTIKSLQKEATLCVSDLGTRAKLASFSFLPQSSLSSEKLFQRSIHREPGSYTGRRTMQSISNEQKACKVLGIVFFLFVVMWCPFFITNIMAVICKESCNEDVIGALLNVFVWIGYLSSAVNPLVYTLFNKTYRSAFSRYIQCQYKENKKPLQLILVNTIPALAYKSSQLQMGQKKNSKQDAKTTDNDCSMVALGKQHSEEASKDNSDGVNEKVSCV
Chain of Muscarinic acetylcholine receptor M3 (Homo sapiens) (P20309 whole entry, looked up): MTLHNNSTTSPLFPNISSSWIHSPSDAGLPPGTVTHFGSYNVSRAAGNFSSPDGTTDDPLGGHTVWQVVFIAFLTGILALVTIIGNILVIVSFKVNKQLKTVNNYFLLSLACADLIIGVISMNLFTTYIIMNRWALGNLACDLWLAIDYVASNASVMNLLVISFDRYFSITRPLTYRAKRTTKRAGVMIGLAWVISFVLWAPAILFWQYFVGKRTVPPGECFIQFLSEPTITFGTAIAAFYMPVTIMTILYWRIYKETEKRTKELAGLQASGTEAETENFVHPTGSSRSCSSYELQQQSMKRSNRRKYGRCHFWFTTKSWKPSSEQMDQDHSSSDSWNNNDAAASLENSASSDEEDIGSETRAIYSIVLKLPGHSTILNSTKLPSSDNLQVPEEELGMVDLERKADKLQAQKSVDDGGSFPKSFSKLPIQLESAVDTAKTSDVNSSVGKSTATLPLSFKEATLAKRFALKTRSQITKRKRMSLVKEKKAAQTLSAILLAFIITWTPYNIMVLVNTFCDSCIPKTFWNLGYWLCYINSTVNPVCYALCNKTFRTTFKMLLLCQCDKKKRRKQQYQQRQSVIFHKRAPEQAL
Chain of Alpha-2C adrenergic receptor (Homo sapiens) (P18825 whole entry): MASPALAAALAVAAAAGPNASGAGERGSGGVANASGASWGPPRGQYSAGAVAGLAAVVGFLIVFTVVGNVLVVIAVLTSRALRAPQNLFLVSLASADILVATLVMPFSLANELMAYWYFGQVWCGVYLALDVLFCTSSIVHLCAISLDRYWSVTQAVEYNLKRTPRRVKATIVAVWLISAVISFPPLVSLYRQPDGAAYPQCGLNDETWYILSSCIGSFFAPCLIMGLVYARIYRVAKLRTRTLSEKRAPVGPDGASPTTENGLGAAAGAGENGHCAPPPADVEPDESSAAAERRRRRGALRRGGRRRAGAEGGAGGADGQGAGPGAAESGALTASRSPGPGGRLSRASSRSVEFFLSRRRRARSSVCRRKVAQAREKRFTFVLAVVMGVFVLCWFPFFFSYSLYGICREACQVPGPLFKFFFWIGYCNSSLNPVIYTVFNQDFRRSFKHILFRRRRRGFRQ
Chain of Nociceptin receptor (Homo sapiens) (P41146 whole entry): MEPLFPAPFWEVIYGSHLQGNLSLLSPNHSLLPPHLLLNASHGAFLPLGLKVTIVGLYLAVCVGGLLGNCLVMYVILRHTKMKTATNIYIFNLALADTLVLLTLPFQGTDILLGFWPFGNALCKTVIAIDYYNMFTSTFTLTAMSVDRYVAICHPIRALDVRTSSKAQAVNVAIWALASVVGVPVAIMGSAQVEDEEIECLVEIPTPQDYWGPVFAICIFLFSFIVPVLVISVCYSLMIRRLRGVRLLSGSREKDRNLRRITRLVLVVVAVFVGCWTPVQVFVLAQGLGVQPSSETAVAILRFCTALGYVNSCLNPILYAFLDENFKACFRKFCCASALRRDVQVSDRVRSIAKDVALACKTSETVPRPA
Chain of C-C chemokine receptor type 1 (Homo sapiens) (P32246 whole entry): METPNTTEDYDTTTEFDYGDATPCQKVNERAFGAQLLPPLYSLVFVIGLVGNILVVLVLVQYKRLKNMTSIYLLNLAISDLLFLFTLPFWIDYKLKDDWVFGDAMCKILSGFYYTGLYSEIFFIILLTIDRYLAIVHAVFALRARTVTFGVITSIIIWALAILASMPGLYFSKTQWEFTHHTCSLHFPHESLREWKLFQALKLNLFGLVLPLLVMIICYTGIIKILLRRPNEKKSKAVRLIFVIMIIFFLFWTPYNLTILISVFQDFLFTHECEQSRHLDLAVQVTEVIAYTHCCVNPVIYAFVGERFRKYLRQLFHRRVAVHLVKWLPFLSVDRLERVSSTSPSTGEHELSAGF
Chain of Alpha-2A adrenergic receptor (Homo sapiens) (P08913 whole entry): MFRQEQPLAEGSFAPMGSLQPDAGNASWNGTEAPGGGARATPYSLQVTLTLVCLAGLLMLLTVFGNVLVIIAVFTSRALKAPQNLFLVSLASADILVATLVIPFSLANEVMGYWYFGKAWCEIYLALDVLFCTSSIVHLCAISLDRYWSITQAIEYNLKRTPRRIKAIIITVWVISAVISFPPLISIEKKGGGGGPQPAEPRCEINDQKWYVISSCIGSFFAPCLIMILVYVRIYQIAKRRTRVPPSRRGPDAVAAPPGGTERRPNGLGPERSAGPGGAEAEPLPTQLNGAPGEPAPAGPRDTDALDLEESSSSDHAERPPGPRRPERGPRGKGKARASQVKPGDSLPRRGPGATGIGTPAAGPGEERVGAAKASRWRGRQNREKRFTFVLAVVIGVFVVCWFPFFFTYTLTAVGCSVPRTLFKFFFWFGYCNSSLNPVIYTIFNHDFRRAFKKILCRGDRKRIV
Chain of Mu-type opioid receptor (Homo sapiens) (P35372 whole entry): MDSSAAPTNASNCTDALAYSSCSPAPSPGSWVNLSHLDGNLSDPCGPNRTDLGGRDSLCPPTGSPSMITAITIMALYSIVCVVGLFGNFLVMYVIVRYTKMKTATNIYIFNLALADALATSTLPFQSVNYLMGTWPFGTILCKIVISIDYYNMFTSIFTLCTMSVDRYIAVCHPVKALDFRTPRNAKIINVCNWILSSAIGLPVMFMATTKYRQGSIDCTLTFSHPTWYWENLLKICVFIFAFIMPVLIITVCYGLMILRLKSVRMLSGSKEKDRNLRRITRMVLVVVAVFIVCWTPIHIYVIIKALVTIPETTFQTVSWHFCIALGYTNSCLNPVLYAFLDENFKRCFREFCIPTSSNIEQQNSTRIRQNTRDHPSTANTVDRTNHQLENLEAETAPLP
Chain of Histamine H1 receptor (Homo sapiens) (P35367 whole entry): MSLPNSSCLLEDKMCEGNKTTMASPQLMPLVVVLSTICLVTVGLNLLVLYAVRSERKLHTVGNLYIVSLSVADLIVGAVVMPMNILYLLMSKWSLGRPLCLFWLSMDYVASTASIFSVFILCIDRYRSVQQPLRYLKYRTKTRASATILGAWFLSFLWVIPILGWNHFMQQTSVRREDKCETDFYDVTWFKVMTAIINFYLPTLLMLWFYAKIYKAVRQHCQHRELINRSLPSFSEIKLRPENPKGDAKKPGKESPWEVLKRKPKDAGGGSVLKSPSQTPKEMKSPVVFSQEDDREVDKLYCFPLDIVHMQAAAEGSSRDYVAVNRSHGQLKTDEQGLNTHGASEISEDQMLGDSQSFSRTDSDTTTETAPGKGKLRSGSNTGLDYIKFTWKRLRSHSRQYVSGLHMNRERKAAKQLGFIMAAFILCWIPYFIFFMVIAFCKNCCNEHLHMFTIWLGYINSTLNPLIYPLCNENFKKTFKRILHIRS
Chain of D(3) dopamine receptor (Homo sapiens) (P35462 whole entry): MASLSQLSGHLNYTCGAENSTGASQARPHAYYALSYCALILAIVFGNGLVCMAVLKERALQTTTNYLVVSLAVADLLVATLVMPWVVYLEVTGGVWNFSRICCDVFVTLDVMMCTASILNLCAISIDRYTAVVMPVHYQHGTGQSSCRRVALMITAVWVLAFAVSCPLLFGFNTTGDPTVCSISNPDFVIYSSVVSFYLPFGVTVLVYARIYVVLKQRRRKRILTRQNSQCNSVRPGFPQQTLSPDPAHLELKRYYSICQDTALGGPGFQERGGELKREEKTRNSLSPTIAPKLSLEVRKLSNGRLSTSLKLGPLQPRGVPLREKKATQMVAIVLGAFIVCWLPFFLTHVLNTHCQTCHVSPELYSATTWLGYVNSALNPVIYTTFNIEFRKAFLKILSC

| inhibition [1] [%] | inhibition [2] [%] | inhibition (Homo sapiens [3]) [%] | inhibition [4] [%] | inhibition [5] [%] | inhibition [6] [%] | inhibition [7] [%] | inhibition [8] [%] | inhibition [9] [%] | inhibition [10] [%] | inhibition [11] [%] | inhibition (Rattus norvegicus [12]) [%] | inhibition [13] [%] | inhibition [14] [%] | inhibition (Rattus norvegicus [15]) [%] | inhibition [16] [%] | inhibition [17] [%] | inhibition [18] [%] | Structure (SMILES) | Activity (Embryonic stem cell) | inhibition (B-cell) | other results |
| --- | --- | --- | --- | --- | --- | --- | --- | --- | --- | --- | --- | --- | --- | --- | --- | --- | --- | --- | --- | --- | --- |
| 26 | 1 | 3 | 6 | 3 | 21 | 98 | -8 | 31 | -9 | 4 | 1 | 5 | -6 | 2 | 16 | 39 | 11 | Clc1cc2c(NC3CCCC3)nnc(-c3ccncc3)c2cc1Cl | Active | Active | inhibition [19]: 0%; inhibition [20]: 13%; inhibition [21]: -6%; inhibition [22]: 17%; inhibition [23]: 2%; inhibition [24]: 16%; inhibition (Homo sapiens [25]): 17%; inhibition (Homo sapiens [26]): 90%; inhibition [27]: 3%; inhibition [28]: 74% |
| 54 | 0 | -5 | -4 | -8 | 10 | 55 | -5 | 23 | -8 | 5 | 65 | -1 | 5 | 5 | -3 | 81 | 18 | O=C(c1nnc(NC2CCCC2)c2cc(Cl)c(Cl)cc12)N1CCC(O)CC1 | inactive | inactive | inhibition [19]: 4%; inhibition [20]: 0%; inhibition [21]: -3%; inhibition [22]: 2%; inhibition [23]: -1%; inhibition [24]: 4%; inhibition (Homo sapiens [25]): -5%; inhibition (Homo sapiens [26]): 17%; inhibition [27]: 11%; inhibition [28]: 27% |
